Consider 17 compounds from patent US6878722B2, “Substituted cycloalkyl P1′ hepatitis C virus inhibitors” (Bristol-Myers Squibb Company, priority 2002, dated 2005).

Test [1] deals with HCV replicon in Huh7 cells. Nature of the test: HCV replicon cell-based assay (FRET). To be noted: Hepatitis C virus, Huh-7; HCV replicon; read-out: EC50 range. In short, it runs like this: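 Huh7 cells stably carrying a genotype 1b HCV replicon (IRES-neo-EMCV-IRES-NS3-NS5B) were treated with compound for 4 days at 37 °C in 0.5% DMSO final. Lysates containing 10 μM FRET peptide RET S1 were read kinetically at 340/490 nm to give NS3 protease activity, from which EC50 was derived.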

Test [2] has as its target T1, HCV NS3/4A protease complex (BMS strain, genotype 1a) (Hepatitis C virus genotype 1a, UniProt P27958, C1454S).
T1 construct: DNA encoding the recombinant HCV NS3/4A protease complex (amino acids 1027 to 1711) for these strains; inferred from the pET21b vector and Ni-NTA purification; made in house; host or cells: Escherichia coli BL21 (DE3), pET21b
Nature of the test: Recombinant HCV NS3/4A protease complex FRET peptide assay, BMS strain. The class given is biochemical. To be noted: IC50 range, NS3/4A BMS Strain. In short, it runs like this:
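Recombinant NS3/4A complex (aa 1027–1711) with C-terminal three-lysine tail, C1711G and C1454S, expressed in E. coli BL21(DE3) and purified by Ni-NTA then Superdex-S200. Inhibition of the complex from each strain measured in vitro by FRET peptide cleavage.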

Bounds are passed on as bounds.

T1 sequence (P27958 1658-1714, looked up, stated change not applied): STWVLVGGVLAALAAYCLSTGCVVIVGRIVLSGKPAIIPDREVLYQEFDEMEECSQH
T1 sequence (P27958 1027-1657, looked up, stated change not applied): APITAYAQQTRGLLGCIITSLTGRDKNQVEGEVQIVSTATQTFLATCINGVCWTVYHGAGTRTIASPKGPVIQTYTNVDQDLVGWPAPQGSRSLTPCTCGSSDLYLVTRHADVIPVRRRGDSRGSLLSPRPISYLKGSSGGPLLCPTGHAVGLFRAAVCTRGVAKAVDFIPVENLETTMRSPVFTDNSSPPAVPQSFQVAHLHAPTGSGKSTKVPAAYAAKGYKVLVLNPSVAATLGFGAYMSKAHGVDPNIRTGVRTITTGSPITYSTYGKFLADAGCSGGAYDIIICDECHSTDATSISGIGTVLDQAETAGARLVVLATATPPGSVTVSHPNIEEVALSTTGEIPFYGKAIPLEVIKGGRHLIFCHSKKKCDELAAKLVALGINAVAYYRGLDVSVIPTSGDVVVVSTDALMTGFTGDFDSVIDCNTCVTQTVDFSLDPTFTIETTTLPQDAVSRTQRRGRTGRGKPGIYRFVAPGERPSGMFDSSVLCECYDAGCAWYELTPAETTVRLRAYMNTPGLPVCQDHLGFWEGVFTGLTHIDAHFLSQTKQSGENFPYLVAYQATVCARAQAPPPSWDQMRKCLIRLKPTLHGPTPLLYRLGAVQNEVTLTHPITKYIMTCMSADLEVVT

As for `C=C[C@@H]1C[C@]1(NC(=O)[C@@H]1C[C@@H](Oc2cc(-c3ccccc3)nc3cc(OC)ccc23)CN1C(=O)[C@@H](NC(=O)OC(C)(C)C)C(C)(C)C)C(=O)NS(=O)(=O)C1(CC2CCC2)CC1` [Compound 32, {1-[2-[1-(1-Cyclobutylmethyl-cyclopropanesulfonylaminocarbonyl)-2-vinyl-cyclopropylcarbamoyl]-4-(7-methoxy-2-phenyl-quinolin-4-yloxy)-pyrrolidine-1-carbonyl]-2,2-dimethyl-propyl}-carbamic acid tert-butyl ester], in test [1], the EC50 is < 50 nM. In test [2], the IC50 is < 50 nM.
Consider `C=C[C@@H]1C[C@]1(NC(=O)[C@@H]1C[C@@H](Oc2cc(-c3ccccc3)nc3cc(OC)ccc23)CN1C(=O)[C@@H](NC(=O)Oc1ccc(F)cc1)C(C)(C)C)C(=O)NS(=O)(=O)C1(Cc2ccccc2)CC1` [Compound 102], for which the EC50 in test [1] was in the range of 500 to 5000 nM. Further, the IC50 in test [2] was 50 to 500 nM.
Consider `C=C[C@@H]1C[C@]1(NC(=O)[C@@H]1C[C@@H](Oc2cc(-c3ccccc3)nc3cc(OC)ccc23)CN1C(=O)[C@@H](NC(=O)OC(C)(C)C)C(C)(C)C)C(=O)NS(=O)(=O)C1(Cc2c(C)noc2C)CC1` [Compound 50, {1-[2-{1-[1-(3,5-Dimethyl-isoxazol-4-ylmethyl)-cyclopropanesulfonylaminocarbonyl]-2-vinyl-cyclopropylcarbamoyl}-4-(7-methoxy-2-phenyl-quinolin-4-yloxy)-pyrrolidine-1-carbonyl]-2,2-dimethyl-propyl}-carbamic acid tert-butyl ester], for which, in test [1], the EC50 is 500 to 5000 nM. The IC50 in test [2] lay in the range of 50 to 500 nM.
For `COc1ccc2c(O[C@@H]3C[C@@H](C(=O)NC4(C(=O)NS(=O)(=O)C5(C6=CCCCC6)CC5)CC4)N(C(=O)[C@@H](NC(=O)OC(C)(C)C)C(C)(C)C)C3)cc(-c3ccccc3)nc2c1` [Compound 76, {1-[2-[1-(1-Cyclohex-1-enyl-cyclopropanesulfonylaminocarbonyl)-cyclopropylcarbamoyl]-4-(7-methoxy-2-phenyl-quinolin-4-yloxy)-pyrrolidine-1-carbonyl]-2,2-dimethyl-propyl}-carbamic acid tert-butyl ester] the same measures were 500 to 5000 nM and 50 to 500 nM.
On to `C=C[C@@H]1C[C@]1(NC(=O)[C@@H]1C[C@@H](Oc2cc(-c3ccccc3)nc3cc(OC)ccc23)CN1C(=O)[C@@H](NC(=O)OC(C)(C)C)C(C)C)C(=O)NS(=O)(=O)C1(CC2CC2)CC1` [Compound 52, {1-[2-[1-(1-Cyclopropylmethyl-cyclopropanesulfonylaminocarbonyl)-2-vinyl-cyclopropylcarbamoyl]-4-(7-methoxy-2-phenyl-quinolin-4-yloxy)-pyrrolidine-1-carbonyl]-2-methyl-propyl}-carbamic acid tert-butyl ester], for which the EC50 in test [1] is < 50 nM. Moreover, the IC50 in test [2] was < 50 nM.
`C=CC1C[C@]1(NC(=O)[C@@H]1C[C@@H](Oc2cc(-c3ccccc3)nc3cc(OC)ccc23)CN1C(=O)[C@@H](NC(=O)OC1CCCC1)C(C)(C)C)C(=O)NS(=O)(=O)C1(C)CC1` (stereo in doubt) [Compound 12, (1-{4-(7-Methoxy-2-phenyl-quinolin-4-yloxy)-2-[1-(1-methylcyclopropanesulfonyl-aminocarbonyl)-2-vinyl-cyclopropylcarbamoyl]-pyrrolidine-1-carbonyl}-2,2-dimethylpropyl)carbamic acid cyclopentyl ester]: the EC50 in test [1] is < 50 nM. In test [2], the IC50 is < 50 nM.
For the compound `C=C[C@@H]1C[C@]1(NC(=O)[C@@H]1C[C@@H](Oc2cc(-c3ccccc3)nc3cc(OC)ccc23)CN1C(=O)[C@@H](NC(=O)COC)C(C)(C)C)C(=O)NS(=O)(=O)C1(Cc2ccccc2)CC1` [Compound 111], in test [1], the EC50 was 50 to 500 nM. In addition, in test [2], the IC50 was 50 to 500 nM.
As to `C=CC1C[C@]1(NC(=O)[C@@H]1C[C@@H](Oc2cc(-c3ccccc3)nc3cc(OC)ccc23)CN1C(=O)[C@@H](NC(=O)OC(C)(C)C)C(C)(C)C)C(=O)NS(=O)(=O)C1(Cc2ccccc2)CC1` (stereo in doubt) [Compound 5, {1-[2-[1-(1-Benzylcyclopropanesulfonyl-aminocarbonyl)-2-vinyl-cyclopropylcarbamoyl]-4-(7-methoxy-2-phenylquinolin-4-yloxy)-pyrrolidine-1-carbonyl]-2,2-dimethylpropyl}-carbamic acid tert-butyl ester], in test [1], the EC50 was < 50 nM. The half-maximal inhibitory concentration (IC50) in test [2] was < 50 nM.
Turning to `C=C[C@@H]1C[C@]1(NC(=O)[C@@H]1C[C@@H](Oc2cc(-c3ccccc3)nc3cc(OC)ccc23)CN1C(=O)[C@@H](NC(=O)OC(C)(C)C)C(C)(C)C)C(=O)NS(=O)(=O)C1(CC#CCC)CC1` [Compound 45, (1-{4-(7-Methoxy-2-phenyl-quinolin-4-yloxy)-2-[1-(1-pent-2-ynyl-cyclopropanesulfonylaminocarbonyl)-2-vinyl-cyclopropylcarbamoyl]-pyrrolidine-1-carbonyl}-2,2-dimethyl-propyl)-carbamic acid tert-butyl ester], the EC50 in test [1] was < 50 nM. Also, the IC50 in test [2] is < 50 nM.
In the case of `C=C[C@@H]1C[C@]1(NC(=O)[C@@H]1C[C@@H](Oc2cc(-c3ccccc3)nc3cc(OC)ccc23)CN1C(=O)[C@@H](NC(=O)O[C@H]1CCOC1)C(C)(C)C)C(=O)NS(=O)(=O)C1(Cc2ccccc2)CC1` [Compound 57, {1-[2-[1-(1-Benzyl-cyclopropanesulfonylaminocarbonyl)-2-vinyl-cyclopropylcarbamoyl]-4-(7-methoxy-2-phenyl-quinolin-4-yloxy)-pyrrolidine-1-carbonyl]-2,2-dimethyl-propyl}-carbamic acid tetrahydro-furan-3-yl ester], the EC50 in test [1] was 50 to 500 nM. Also, in test [2], the IC50 was < 50 nM.
`C=C[C@@H]1C[C@]1(NC(=O)[C@@H]1C[C@@H](Oc2cc(-c3ccccc3)nc3cc(OC)ccc23)CN1C(=O)[C@@H](NC(=O)Oc1ccccc1)C(C)(C)C)C(=O)NS(=O)(=O)C1(Cc2ccccc2)CC1` [Compound 101]: the EC50 in test [1] fell in the range of 500 to 5000 nM. For the same compound, in test [2], the IC50 was in the range of 50 to 500 nM.
As to `C=C[C@@H]1C[C@]1(NC(=O)[C@@H]1C[C@@H](Oc2cc(-c3ccccc3)nc3cc(OC)ccc23)CN1C(=O)[C@@H](NC(=O)CC1CCOCC1)C(C)(C)C)C(=O)NS(=O)(=O)C1(Cc2ccccc2)CC1` [Compound 59, 1-[3,3-Dimethyl-2-(2-tetrahydro-pyran-4-yl-acetylamino)-butyryl]-4-(7-methoxy-2-phenyl-quinolin-4-yloxy)-pyrrolidine-2-carboxylic acid [1-(1-benzyl-cyclopropanesulfonylaminocarbonyl)-2-vinyl-cyclopropyl]-amide], the EC50 in test [1] is 50 to 500 nM. Also, the IC50 in test [2] was < 50 nM.
In the case of `C=C[C@@H]1C[C@]1(NC(=O)[C@@H]1C[C@@H](Oc2cc(-c3ccccc3)nc3cc(OC)ccc23)CN1C(=O)[C@@H](NC(=O)OC(C)(C)C)C(C)(C)C)C(=O)NS(=O)(=O)C1(CC)CC1` [Compound 28], in test [1], the EC50 was < 50 nM. Moreover, in test [2], the IC50 was < 50 nM.
Consider `C=C[C@@H]1C[C@]1(NC(=O)[C@@H]1C[C@@H](Oc2cc(C3CC3)nc3cc(OC)ccc23)CN1C(=O)[C@@H](NC(=O)OC(C)(C)C)C(C)(C)C)C(=O)NS(=O)(=O)C1(CC2CC2)CC1` [Compound 70, (1-{4-(2-Cyclopropyl-7-methoxy-quinolin-4-yloxy)-2-[1-(1-cyclopropylmethyl-cyclopropanesulfonylaminocarbonyl)-2-vinyl-cyclopropylcarbamoyl]-pyrrolidine-1-carbonyl}-2,2-dimethyl-propyl)-carbamic acid tert-butyl ester], for which the EC50 in test [1] was < 50 nM. In addition, the IC50 in test [2] was < 50 nM.
For `C=C[C@@H]1C[C@]1(NC(=O)[C@@H]1C[C@@H](Oc2cc(-c3ccccc3)nc3cc(OC)ccc23)CN1C(=O)[C@@H](NC(=O)OC(C)(C)C)C(C)(C)C)C(=O)NS(=O)(=O)C1(CCC)CC1` [Compound 29, (1-{4-(7-Methoxy-2-phenyl-quinolin-4-yloxy)-2-[1-(1-propyl-cyclopropanesulfonylaminocarbonyl)-2-vinyl-cyclopropylcarbamoyl]-pyrrolidine-1-carbonyl}-2,2-dimethyl-propyl)-carbamic acid tert-butyl ester], the EC50 in test [1] is < 50 nM. In addition, in test [2], the IC50 was < 50 nM.
For `C=C[C@@H]1C[C@]1(NC(=O)[C@@H]1C[C@@H](Oc2cc(-c3ccccc3)nc3cc(OC)ccc23)CN1C(=O)[C@@H](NC(=O)OC(C)(C)C)C(C)(C)C)C(=O)NS(=O)(=O)C1([Si](C)(C)C)CC1` [Compound 27], the EC50 in test [1] is < 50 nM. Moreover, the IC50 in test [2] is < 50 nM.
Take `C=CC1C[C@]1(NC(=O)[C@@H]1C[C@@H](Oc2cc(-c3ccccc3)nc3cc(OC)ccc23)CN1C(=O)[C@@H](NC(=O)OC(C)(C)C)C(C)(C)C)C(=O)NS(=O)(=O)C1(C(=O)Nc2c(C)noc2C)CC1` (stereo partly shown) [Compound 10, {1-[2-{1-[1-(3,5-Dimethylisoxazol-4-ylcarbamoyl)cyclopropanesul-fonylaminocarbonyl]-2-vinylcyclopropylcarbamoyl}-4-(7-methoxy-2-phenylquinolin-4-yloxy)pyrrolidine-1-carbon-yl]-2,2-dimethylpropyl}carbamicacid tert-butyl ester]: in test [1], the EC50 was < 50 nM. Also, the IC50 in test [2] was < 50 nM.
